# Laboratory results as given in patent publication US8119624B2, “Fused phenyl amido heterocyclic compounds” (Pfizer Inc., priority 2006, dated 2012).
# Target: T1, Full-length glucokinase (beta cell isoform) (Homo sapiens, UniProt P35557)
# T1 construct: Full-length glucokinase (beta cell isoform) was His-tagged at N-terminus; His tag (N); made in house
# T1 sequence (P35557 1-465): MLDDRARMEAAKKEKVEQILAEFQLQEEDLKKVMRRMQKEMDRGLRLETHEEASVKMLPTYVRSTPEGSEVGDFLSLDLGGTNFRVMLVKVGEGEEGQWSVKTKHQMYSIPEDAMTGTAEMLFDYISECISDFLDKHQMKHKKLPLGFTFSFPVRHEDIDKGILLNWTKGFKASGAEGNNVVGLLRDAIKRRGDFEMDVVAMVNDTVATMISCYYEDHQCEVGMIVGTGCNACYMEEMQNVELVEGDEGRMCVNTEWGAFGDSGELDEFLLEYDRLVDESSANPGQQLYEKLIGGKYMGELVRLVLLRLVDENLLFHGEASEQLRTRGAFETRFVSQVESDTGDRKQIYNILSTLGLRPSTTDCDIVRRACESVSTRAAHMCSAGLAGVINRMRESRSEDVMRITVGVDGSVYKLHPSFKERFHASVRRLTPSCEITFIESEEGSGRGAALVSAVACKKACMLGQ
# Assay: Glucokinase biochemical assay (PK/LDH-coupled, NADH depletion at 340 nm): % activation, EC50, % max activation
# Conditions: 5 mM glucose; for EC50 / activation at 10 µM / Emax: 1 mM ATP; for EC50 / activation at 10 µM: room temperature; for EC50: read-out: EC50; for activation at 10 µM: compound at 10 uM, read-out: % Activation at 10 uM; for Emax: fitted maximum activation, read-out: % Max Activation
# Procedure, shortened: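 N-terminally His-tagged full-length human beta-cell glucokinase, room temperature, 5 mM glucose, 1 mM ATP, PK/LDH-coupled with 0.7 mM NADH, 1% DMSO final. Initial velocity from the 200–900 s slope of A340 decline. % activation = (Va/Vo−1)×100, measured across compound concentrations.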
Compound,"% Activation at 10 uM (10 uM compound, % Activation=(Va/Vo−1)×100) [%]",EC50 [µM],activation at 10 µM [%],Emax [%]
"Cc1ccc(NC(=O)c2cc(OCc3ccccc3Cl)cc3c2CCC(C)(C)O3)nc1 [Example 375, 7-(2-Chloro-benzyloxy)-2,2-dimethyl-chroman-5-carboxylic acid(5-methyl-pyridin-2-yl)-amide]",5.6,,,
"Cc1ccc(NC(=O)c2cc(Oc3ccc(S(C)(=O)=O)cc3)c3c(c2)C(=O)N(C)C3)nc1 [Example 376, 2-Methyl-N-(5-methylpyridin-2-yl)-7-(4-(methylsulfonyl)-phenoxy)-3-oxoisoindoline-5-carboxamide]",,6.4,73.1,90
"Cn1ccc(NC(=O)c2cc(OCc3ccccc3)c3c(c2)C(=O)N(C2CC2)C3)n1 [Example 377, 7-(Benzyloxy)-2-cyclopropyl-N-(1-methyl-1H-pyrazol-3-yl)-3-oxoisoindoline-5-carboxamide]",,,25.6,
"Cc1ccc(NC(=O)c2cc(OCc3ccccc3)c3c(c2)C(=O)N(C2CC2)C3)nc1 [Example 378, 7-(Benzyloxy)-2-cyclopropyl-N-(5-methylpyridin-2-yl)-3-oxoisoindoline-5-carboxamide]",,,-1.85,
"CCN1Cc2c(Oc3ccc(S(C)(=O)=O)cc3)cc(C(=O)Nc3ccc(C)cn3)cc2C1=O [Example 379, 2-Ethyl-N-(5-methylpyridin-2-yl)-7-(4-(methylsulfonyl)-phenoxy)-3-oxoisoindoline-5-carboxamide]",,4.5,74.1,98
"CCN1Cc2c(Oc3ccc(S(C)(=O)=O)cc3)cc(C(=O)Nc3ccn(C)n3)cc2C1=O [Example 380, 2-Ethyl-N-(1-methyl-1H-pyrazol-3-yl)-7-(4-(methylsulfonyl)-phenoxy)-3-oxoisoindoline-5-carboxamide]",,> 10,67.9,
"Cc1ccc(NC(=O)c2cc(Oc3ccc(S(C)(=O)=O)cc3)c3c(c2)C(=O)N(CC(C)C)C3)nc1 [Example 381, 2-Isobutyl-N-(5-methylpyridin-2-yl)-7-(4-(methylsulfonyl)-phenoxy)-3-oxoisoindoline-5-carboxamide]",,3,81,132
"CC(C)CN1Cc2c(Oc3ccc(S(C)(=O)=O)cc3)cc(C(=O)Nc3ccn(C)n3)cc2C1=O [Example 382, 2-Isobutyl-N-(1-methyl-1H-pyrazol-3-yl)-7-(4-(methylsulfonyl)-phenoxy)-3-oxoisoindoline-5-carboxamide]",,9.3,82,156
"Cc1ccc(NC(=O)c2cc(Oc3ccc(S(C)(=O)=O)cc3)c3c(c2)C(=O)N(C(C)C)C3)nc1 [Example 383, 2-Isopropyl-N-(5-methylpyridin-2-yl)-7-(4-(methylsulfonyl)-phenoxy)-3-oxoisoindoline-5-carboxamide]",,,32.6,
"CC(C)N1Cc2c(Oc3ccc(S(C)(=O)=O)cc3)cc(C(=O)Nc3ccn(C)n3)cc2C1=O [Example 384, 2-Isopropyl-N-(1-methyl-1H-pyrazol-3-yl)-7-(4-(methylsulfonyl)-phenoxy)-3-oxoisoindoline-5-carboxamide]",,,33.2,
"Cc1ccc(NC(=O)c2cc(Oc3ccc(S(C)(=O)=O)cc3)c3c(c2)C(=O)N(C2CC2)C3)nc1 [Example 385, 2-Cyclopropyl-N-(5-methylpyridin-2-yl)-7-(4-(methylsulfonyl)-phenoxy)-3-oxoisoindoline-5-carboxamide]",,4.5,93.2,107

# Further lines, results first:
"% Activation at 10 uM (10 uM compound, % Activation=(Va/Vo−1)×100) [%]",EC50 [µM],activation at 10 µM [%],Emax [%],Compound
,> 10,78.8,,"Cn1ccc(NC(=O)c2cc(Oc3ccc(S(C)(=O)=O)cc3)c3c(c2)C(=O)N(C2CC2)C3)n1 [Example 386, 2-Cyclopropyl-N-(1-methyl-1H-pyrazol-3-yl)-7-(4-(methylsulfonyl)-phenoxy)-3-oxoisoindoline-5-carboxamide]"
,> 10,42.9,,"COCCN1Cc2c(Oc3ccc(S(C)(=O)=O)cc3)cc(C(=O)Nc3ccc(C)cn3)cc2C1=O [Example 387, 2-(2-Methoxyethyl)-N-(5-methylpyridin-2-yl)-7-(4-(methylsulfonyl)-phenoxy)-3-oxoisoindoline-5-carboxamide]"
,,39.7,,"COCCN1Cc2c(Oc3ccc(S(C)(=O)=O)cc3)cc(C(=O)Nc3ccn(C)n3)cc2C1=O [Example 388, 2-(2-Methoxyethyl)-N-(1-methyl-1H-pyrazol-3-yl)-7-(4-(methylsulfonyl)-phenoxy)-3-oxoisoindoline-5-carboxamide]"
,,32.9,,"CC(C)CN1CCc2c(Oc3ccc(S(C)(=O)=O)cc3)cc(C(=O)Nc3ccn(C)n3)cc2C1=O [Example 389, 2-Isobutyl-N-(1-methyl-1H-pyrazol-3-yl)-5-[4-(methylsulfonyl)-phenoxy]-1-oxo-1,2,3,4-tetrahydroisoquinoline-7-carboxamide]"
,,28.9,,"Cc1ccc(NC(=O)c2cc(Oc3ccc(S(C)(=O)=O)cc3)c3c(c2)C(=O)N(C)CC3)nc1 [Example 390, 2-Methyl-N-(5-methylpyridin-2-yl)-5-(4-(methylsulfonyl)-phenoxy)-1-oxo-1,2,3,4-tetrahydroisoquinoline-7-carboxamide]"
,> 10,45.2,,"Cc1ccc(NC(=O)c2cc(Oc3ccc(S(C)(=O)=O)cc3)c3c(c2)C(=O)N(CC(C)C)CC3)nc1 [Example 391, 2-Isobutyl-N-(5-methylpyridin-2-yl)-5-(4-(methylsulfonyl)-phenoxy)-1-oxo-1,2,3,4-tetrahydroisoquinoline-7-carboxamide]"
,> 10,48.6,,"CC(C)CN1CCc2c(Oc3ccc(C(=O)N(C)C)c(F)c3)cc(C(=O)Nc3ccn(C)n3)cc2C1=O [Example 392, 5-(4-(Dimethylcarbamoyl)-3-fluorophenoxy)-2-isobutyl-N-(1-methyl-1H-pyrazol-3-yl)-1-oxo-1,2,3,4-tetrahydroisoquinoline-7-carboxamide]"
,,32,,"Cc1ccc(NC(=O)c2cc(Oc3ccc(S(C)(=O)=O)cc3)c3ccn(C)c(=O)c3c2)nc1 [Example 394, 2-Methyl-N-(5-methylpyridin-2-yl)-5-(4-(methylsulfonyl)-phenoxy)-1-oxo-1,2-dihydroisoquinoline-7-carboxamide]"
,0.36,204,212,"Cn1ccc(NC(=O)c2cc(Oc3cnc(C(=O)N4CCC4)cn3)c3c(c2)OC(C)(C)C3)n1 [Example 396, 4-[5-(Azetidine-1-carbonyl)-pyrazin-2-yloxy]-2,2-dimethyl-2,3-dihydro-benzofuran-6-carboxylic acid(1-methyl-1H-pyrazol-3-yl)-amide]"
,0.083,213,202,"Cn1ccc(NC(=O)c2cc(Oc3ccc(C(=O)N4CC(F)C4)nc3)c3c(c2)OC(C)(C)C3)n1 [Example 397, 4-[6-(3-Fluoro-azetidine-1-carbonyl)-pyridin-3-yloxy]-2,2-dimethyl-2,3-dihydro-benzofuran-6-carboxylic acid(1-methyl-1H-pyrazol-3-yl)-amide]"
,0.056,128,114,"Cn1ccc(NC(=O)c2cc(Oc3ccc(C(=O)N4CCCC4)nc3)c3c(c2)OC(C)(C)C3)n1 [Example 398, 2,2-Dimethyl-4-[6-(pyrrolidine-1-carbonyl)-pyridin-3-yloxy]-2,3-dihydro-benzofuran-6-carboxylic acid(1-methyl-1H-pyrazol-3-yl)-amide]"
,0.61,212,231,"CN(CC#N)C(=O)c1ccc(Oc2cc(C(=O)Nc3ccn(C)n3)cc3c2CC(C)(C)O3)cn1 [Example 399, 5-[2,2-Dimethyl-6-(1-methyl-1H-pyrazol-3-ylcarbamoyl)-2,3-dihydro-benzofuran-4-yloxy]-pyridine-2-carboxylic acid cyanomethyl-methyl-amide]"
,0.14,192,177,"CNC(=O)c1c(F)cc(Oc2cc(C(=O)Nc3ccn(C)n3)cc3c2CC(C)(C)O3)cc1F [Example 400, 4-(3,5-Difluoro-4-methylcarbamoyl-phenoxy)-2,2-dimethyl-2,3-dihydro-benzofuran-6-carboxylic acid(1-methyl-1H-pyrazol-3-yl)-amide]"
,0.121,196,191,"Cn1ccc(NC(=O)c2cc(Oc3cnc(C(=O)N4CC(F)C4)c(F)c3)c3c(c2)OC(C)(C)C3)n1 [Example 403, 4-(5-fluoro-6-(3-fluoroazetidine-1-carbonyl)pyridin-3-yloxy)-2,2-dimethyl-N-(1-methyl-1H-pyrazol-3-yl)-2,3-dihydrobenzofuran-6-carboxamide]"
